Values quoted from earlier work, collected in patent US6355226B1, “Topical treatment of skin disease and eye afflictions” (Advanced Viral Research Corp., priority 1997, dated 2002).

Assays:
[1] = tested on: cytomegalovirus (CM)
[2] = tested on: genital herpes infection; settings: topically administered ointment
[3] = tested on: herpes simplex 1 and 2 (HSV 1 and 2)

Compound: Nc1nc2c(ncn2COCCO)c(=O)[nH]1 [acyclovir]
- effectiveness against cytomegalovirus [1]: not against cytomegalovirus
- effect on recurrent genital herpes disease [2]: little if any, effect
- effectiveness in primary first occurrence of genital herpes infection [2]: seems to be effective
- effectiveness against HSV 1 and 2 [3]: specifically effective
